ChEMBL document CHEMBL5620374, “Synthesis and bioevaluation of novel stilbene-based derivatives as tubulin/HDAC dual-target inhibitors with potent antitumor activities in vitro and in vivo” (Eur J Med Chem, 2023)
Calls of active or inactive are those of the source. The calls are words filed in the database; no cut-off is given here.

Legend:
[1] = test system: K562; assay: Antiproliferative activity against human K562 cells incubated for 72 hrs by MTT assay; type: functional, cell-based; conditions: K562, 72 h
[2] = test system: B16-F10; assay: Antiproliferative activity against mouse B16-F10 cells incubated for 72 hrs by MTT assay; type: functional, cell-based; conditions: B16-F10, 72 h
[3] = test system: K562; assay: Effect on cell cycle in human K562 cells assessed as decrease in cyclin B1 level incubated for 24 hrs by Western blot analysis; type: functional, cell-based; conditions: dose 2-8 nM
[4] = test system: K562; assay: Induction of apoptosis in human K562 cells assessed as viable cells at 4 nM incubated for 48 hrs by Annexin V/PI staining based flow cytometry (reference value: 92.52 +/- 0.34 %); type: functional; conditions: read-out: Activity
[5] = test system: K562; assay: Induction of apoptosis in human K562 cells assessed as late apoptotic cells at 4 nM incubated for 48 hrs by Annexin V/PI staining based flow cytometry (reference value: 3.37 +/- 0.21 %); type: functional
[6] = test system: K562; assay: Induction of apoptosis in human K562 cells assessed as decrease in Bcl-2 level incubated for 24 hrs by Western blot analysis; type: functional, cell-based; conditions: dose 2-8 nM
[7] = test system: K562; assay: Induction of apoptosis in human K562 cells assessed as decrease in Bcl-xL level incubated for 24 hrs by Western blot analysis; type: functional, cell-based; conditions: dose 2-8 nM
[8] = test system: H22; assay: Antitumor activity against mouse H22 cells allografted in ICR mouse assessed as tumor growth inhibition at 10 mg/kg, iv qd for 17 days consecutively relative to control; type: functional; conditions: time 17 day, read-out: TGI
[9] = test system: H22; assay: Antitumor activity against mouse H22 cells allografted in ICR mouse assessed as decrease in tumor weight at 10 to 20 mg/kg, iv qd for 17 days consecutively; type: functional, organism-based; conditions: dose 10-20 mg/kg, time 17.0 day
[10] = Toxicity in ICR mouse allografted with mouse H22 cells assessed as body weight reduction at 10 to 20 mg/kg, iv qd for 17 days consecutively; type: organism-based; conditions: in vivo, dose 10-20 mg/kg, time 17 day
[11] = test system: A2780; assay: cells; conditions: Homo sapiens, A2780, 72 h
Description: Antiproliferative activity against human A2780 cells incubated for 72 hrs by MTT assay

Compound: C=C(c1ccc(OC)c(OC(F)C(=O)NO)c1)c1cc(C)nc2ccccc12 (stereo unspecified)
- IC50 [1]: 3 nM
- IC50 [2]: 5 nM
- Activity [3]: Dose-Dependent Effect
- viability at 0.004 µM [4]: 66.6%
- Activity [5]: 8.7%
- Activity [6]: Dose-Dependent Effect
- Activity [7]: Dose-Dependent Effect
- inhibition in vivo at 10 mg/kg [8]: 48%
- Activity [9]: Active
- Activity [10]: Non-Toxic
- IC50 [11]: 5 nM
